Reference: patent US7579006B2, “Method of treating immune pathologies with low dose estrogen” (Oregon Health and Science University, priority 2000, dated 2009)

Assays:
Format in all cases: in vivo, mice
CNS mononuclear cells = assay: Intracellular cytokine staining of CNS mononuclear cells; details: 2.5 mg pellet
Excerpt: CNS mononuclear cells were isolated from perfused brain and spinal cord by percol gradient centrifugation as described in Bebo et al., J. Neurosci. Res. 52:420-429 (1998). The cells were stimulated with MOG-35-55 peptide for 24 hrs, the last 5 hrs in the presence of Brefeldin A. The cells were then stained with anti-CD4 cychrome labeled antibodies prior to fixation and permeabilization. The cells were subsequently stained with Vβ8.1/8.2 TCR-FITC and the indicated cytokine specific antibody coupled to PE and analyzed by three-color flow cytometry. For each experiment the cells were stained with isotype control antibodies to establish background staining and to set the quadrants prior to calculating the percent positive cells.
Intracellular staining of CNS mononuclear cells with anti-cytokine antibodies was also performed. Mononuclear cells were recovered from the brain and spinal cords of perfused mice at the peak of clinical disease. […] These cells were stained with anti-CD4 cychrome labeled antibodies and the frequency of cytokine producing Vβ8.2+ helper T cells was measured by staining with anti-Vβ8.2-FITC and PE-labeled cytokine specific antibodies.

spinal cord mRNA = assay: RNase protection assay of chemokine, chemokine receptor and cytokine mRNA in spinal cords of Tg females with EAE; details: 0.36 mg pellet
Protocol: RNase protection assay. Total RNA was extracted from frozen spinal cords or lymph node cells using the STAT-60 reagent (Tel-Test, Inc., Friendswood, Tex.). Chemokine expression was determined by using the RiboQuant RPA kit (PharMingen) according to the manufacturer's instructions. A multiprobe set detected the following chemokine transcripts: C—X—C chemokines: MIP-2 and IP-10; C—C chemokines: RANTES, MIP-1α, MCP-1, and TCA-3; and C chemokine: Ltn. The chemokine receptor set detected the following transcripts: CCR1, CCR1b, CCR2, CCR3, CCR4, CCR5. Using RPA multiprobe it was possible to detect the following cytokines: IL-4, IL-10, TNF-α, LTβ, IFN-γ. The sample loading was normalized by the housekeeping gene, L32, included in each template set. RPA analysis was performed on […] total RNA hybridized with probes labeled with [^32P]UTP. After digestion of ssRNA, the RNA pellet was solubilized and resolved on a 5% sequencing gel. Controls included the probe set hybridized to transfer RNA only, appropriate control RNA which serves as integrity control for the RNA sample, and yeast tRNA as a background control. For quantification, gels were exposed by phosphorimaging (Bio-Rad Laboratories, Hercules, Calif.) and radioactivity in individual bands (after background subtraction) in comparison with L32 was assessed with Quantity One software (Bio-Rad Laboratories, Hercules, Calif.).
To optimize detection of clinically-related changes, chemokine expression was compared in 17β-estradiol protected versus sham pellet implanted mice during the peak acute phase of disease (16-17 days after immunization with MBP-Ac1-11 peptide/CFA) and during the chronic phase (28 days after immunization). […] A quantitative method—the RNase protection assay—was employed to examine RNA synthesis for the following chemokines: RANTES, MIP-1α, MCP-1, and TCA-3 (C—C-subfamily); and MIP-2 and IP-10 (C—X—C-subfamily). The tissue sample for RPA was prepared by homogenization of whole spinal cord and total cellular RNA was extracted.

DLN cells = assay: PLP 139-151 induced cytokine production by DLN cells (ELISA); details: 48-72 hours after PLP 139-151 stimulation
Protocol: Cytokine detection by ELISA. DLN cells were cultured at 4×10^6/ml and stimulated with the appropriate antigen in 24 well culture plates. Cell culture supernatants were recovered between 48-72 hr and frozen at −70° C. until needed for the cytokine assay. Measurement of cytokines was performed by ELISA using cytokine specific capture and detection antibodies (Pharmingen). Standard curves for each assay were generated using recombinant mouse cytokines (Pharmingen), and the concentration of cytokines in the cell supernatants was determined by interpolation from the appropriate standard curve. IFN-γ, TNF-α and IL-12 were chosen as representative Th1 cytokines, while IL-4 and IL-10 were measured as representative Th2 cytokines.
To determine if low dose estrogen therapy altered cytokine secretion patterns, DLN cells were prepared from individual mice at the peak of clinical EAE and cytokine levels were measured 48-72 hours after in vitro stimulation with PLP 139-151. IFN-γ, IL-12, and TNF-α were used as representative Th1 cytokines while IL-4, and IL-10 were used as representative Th2 cytokines. […] Despite the lack of statistical significance, the trend towards higher Th1 and lower Th2 cytokines points towards a subtle shift in the Th1/Th2 balance. The shift can be seen more clearly when the cytokine response of each individual mouse is plotted as a ratio of IFN-γ to IL-10 (FIG. 5C). There was a marked decrease in the frequency of high Th1 responder mice in the E2 and E3 treated groups when compared to placebo animals that approached significance (p=0.09 for the 5.0 mg E3 treated mice). Additionally, no informative trends were detected in IL-4 secretion (FIG. 5D), and TNF-α secretion was very often below the limits of detection for the assay (<31.25 pg/ml). Modest changes in cytokine responses induced by low dose estrogen therapy were also observed in the B10.PL model and were consistent with the data described for the SJL model.

Q: With `C[C@]12CC[C@@H]3c4ccc(O)cc4CC[C@H]3[C@@H]1CC[C@@H]2O` [17β-estradiol] as the molecule, how does the “frequency and staining intensity of TNF-α and IFN-γ producing CD4+ T cells in the CNS” value (CNS mononuclear cells; p<0.0001) read?
A: The value was “dramatic reduction”.

Q: What about the “total number of mononuclear cells recovered from perfused CNS, untreated relative to E2 treated mice” value (CNS mononuclear cells; peak of clinical disease) of the same molecule?
A: The value was 4-5 times higher.

Q: What about the “pro-inflammatory cytokine producing CD4+ Vβ8.2+ T cells in CNS” value (CNS mononuclear cells; untreated 29,000 cells/mouse) of the same molecule?
A: Its value is 390 cells/mouse.

Q: And the “LT-β, TNF-α and IFN-γ message in spinal cord at peak of EAE” value (spinal cord mRNA)?
A: The value was “significantly inhibited”.

Q: And the “chemokine mRNA expression in spinal cord (RANTES, MIP-1α, MIP-2, IP-10, MCP-1)” value (spinal cord mRNA; intact Tg females, peak of disease p<0.001)?
A: Its value is “profoundly lower levels”.

Q: And the “chemokine mRNA expression in spinal cord” value (spinal cord mRNA; ovariectomized females)?
A: Its value is “strongly inhibited”.

Q: And the “mRNA levels for CCR1, CCR2 and CCR5 in spinal cord” value (spinal cord mRNA; p<0.001)?
A: The value was “strongly inhibited”.

Q: What about the “IL-10 secretion by DLN cells” value (DLN cells) of the same molecule?
A: Its value is “modest increase”.

Q: And the “IL-12 secretion by DLN cells” value (DLN cells)?
A: Its value is “small decrease”.

Q: And the “secretion of IFN-γ by DLN cells” value (DLN cells; p>0.10)?
A: Its value is “consistently lower”.
